According to ChEMBL document CHEMBL1201862, “PubChem BioAssay data set” (2004):
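Method: 48-hour compound exposure of cells in 96-well plates, five concentrations, linear interpolation of endpoints. GI50 is the concentration that inhibits growth by half.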 Active and inactive are the calls of the source. No stated cut-off is given here; in the data, active = GI50 up to about 1.1 µM and inactive = higher.

Experiments:
Assay in all cases: NCI tumour cell line growth inhibition, 48 h
SNB-75 = tested on: SNB-75
DMS-114 = tested on: DMS-114
NCI-H23 = tested on: NCI-H23
786-0 = tested on: 786-0
ACHN = tested on: ACHN
IGROV-1 = tested on: IGROV-1
SN12C = tested on: SN12C
BT-549 = tested on: BT-549
SR = tested on: SR
HOP-92 = tested on: HOP-92
HT-29 = tested on: HT-29
NCI-H460 = tested on: NCI-H460
SF-295 = tested on: SF-295
M14 = tested on: M14
SF-268 = tested on: SF-268
SF-539 = tested on: SF-539
HL-60 = tested on: HL-60
LOX IMVI = tested on: LOX IMVI
Hs-578T = tested on: Hs-578T
UACC-62 = tested on: UACC-62

Measured: GI50

Cc1nc2ccccc2c(=O)n1/N=C(\N=N\c1cc(Cl)ccc1Cl)c1ccccc1
inactive: SNB-75 16.1 µM | DMS-114 30.2 µM | NCI-H23 50.7 µM | 786-0 74.1 µM | ACHN > 84.9 µM | IGROV-1 44.6 µM | SN12C > 54.2 µM | BT-549 38.6 µM | SR 44.8 µM | HOP-92 30.4 µM | HT-29 36.7 µM | NCI-H460 45.8 µM | SF-295 44.9 µM | M14 54.7 µM | SF-268 58.6 µM | SF-539 46.5 µM | HL-60 58.5 µM | LOX IMVI 40.6 µM | Hs-578T 74 µM | UACC-62 45.8 µM

O=C1C2C(C(=O)N1O)N(Cc1ccccc1)C(=O)N2Cc1ccccc1 (stereo not drawn)
inactive: SNB-75 > 100 µM | DMS-114 > 100 µM | NCI-H23 > 100 µM | 786-0 > 100 µM | ACHN > 100 µM | IGROV-1 > 100 µM | SN12C > 100 µM | SR > 100 µM | HOP-92 > 100 µM | HT-29 > 100 µM | NCI-H460 > 100 µM | SF-295 > 100 µM | M14 > 100 µM | SF-268 > 100 µM | SF-539 > 100 µM | HL-60 > 100 µM | LOX IMVI > 100 µM | UACC-62 > 100 µM

CC(C)C(=O)Nc1nc2c(ncn2C2OC(CO)C(O)C2O)c(=O)[nH]1 (stereo not drawn)
inactive: SNB-75 > 100 µM | DMS-114 67.1 µM | NCI-H23 > 100 µM | 786-0 > 100 µM | ACHN > 100 µM | IGROV-1 > 100 µM | SN12C > 100 µM | SR > 100 µM | HOP-92 > 100 µM | HT-29 > 100 µM | NCI-H460 > 100 µM | SF-295 > 100 µM | M14 > 100 µM | SF-268 > 100 µM | SF-539 > 100 µM | HL-60 > 100 µM | LOX IMVI > 100 µM | UACC-62 > 100 µM

NC(=O)N1N=C2c3ccccc3OC[C@H]2[C@@H]1c1ccccc1
inactive: SNB-75 16.6 µM | DMS-114 7.53 µM | NCI-H23 22.6 µM | 786-0 5.02 µM | ACHN 5.68 µM | IGROV-1 18.8 µM | SN12C 23.9 µM | SR 6.31 µM | HOP-92 13.8 µM | HT-29 27.6 µM | NCI-H460 13.2 µM | SF-295 4.21 µM | M14 2.07 µM | SF-268 9.86 µM | SF-539 3.92 µM | HL-60 22.6 µM | LOX IMVI 26.1 µM | UACC-62 3.78 µM

COc1ccc2c(c1)CCc1c(-c3n[nH]c4c3CCc3cc(OC)ccc3-4)n[nH]c1-2
inactive: SNB-75 23.3 µM | DMS-114 55.5 µM | NCI-H23 79.4 µM | 786-0 19 µM | ACHN 29.9 µM | IGROV-1 48.6 µM | SN12C 57.4 µM | SR 38.1 µM | HOP-92 30.8 µM | HT-29 33.2 µM | NCI-H460 39 µM | SF-295 17.2 µM | M14 25.9 µM | SF-268 37.1 µM | SF-539 24.1 µM | HL-60 27.5 µM | LOX IMVI 17.9 µM | UACC-62 23.5 µM

CC(C)(O)[C@@H]1CCC(C)([C@H]2[C@@H](O)CC3(C)C4CC(OC5OC(CO)C(O)C(O)C5O)C5C(C)(C)[C@@H](OC6OCC(O)C(O)C6O)CC[C@@]56C[C@@]46CC[C@]23C)O1 (stereo partly drawn)
inactive: SNB-75 > 100 µM | DMS-114 > 100 µM | NCI-H23 > 100 µM | 786-0 > 100 µM | ACHN > 100 µM | IGROV-1 > 100 µM | SN12C > 100 µM | SR > 100 µM | HOP-92 > 100 µM | HT-29 > 100 µM | NCI-H460 > 100 µM | SF-295 > 100 µM | M14 > 100 µM | SF-268 > 100 µM | SF-539 > 100 µM | HL-60 > 100 µM | LOX IMVI > 100 µM | UACC-62 > 100 µM

CCN(CC)CCNc1ccc2nnn3c4ccc(OC)cc4c(=O)c1c23
inactive: SNB-75 7.82 µM | DMS-114 8.89 µM | NCI-H23 8.49 µM | 786-0 4.31 µM | ACHN 4.71 µM | IGROV-1 7.55 µM | SN12C 5.96 µM | SR 1.59 µM | HOP-92 6.07 µM | HT-29 3.74 µM | NCI-H460 3.17 µM | SF-295 5.14 µM | M14 10.5 µM | SF-268 7.33 µM | SF-539 3.04 µM | HL-60 3.94 µM | LOX IMVI 2.22 µM | UACC-62 12.9 µM

O=NN(CCCl)C(=O)NCCCl [CARMUSTINE]
inactive: SNB-75 52.2 µM | DMS-114 61.5 µM | NCI-H23 88.1 µM | 786-0 42.3 µM | ACHN 83 µM | IGROV-1 70.6 µM | SN12C 75.9 µM | BT-549 79.3 µM | SR 14 µM | HOP-92 65.2 µM | HT-29 79.3 µM | NCI-H460 52.5 µM | SF-295 44.5 µM | M14 78.7 µM | SF-268 38.6 µM | SF-539 44.8 µM | HL-60 16.7 µM | LOX IMVI 38 µM | Hs-578T 103 µM | UACC-62 23.8 µM
